The subject of assay [1] is TSH mediated cAMP generation in FRTL-5 cells. The experiment in a line: Inhibition of TSH mediated cAMP generation in FRTL-5 cells. The assay is classed as cell-based, rat. The settings on record: 200 mU/L bTSH, 2 hrs 37° C. As for the experimental part: (§1) FRTL-5 cells were maintained in Ham's F-12 medium supplemented with 5% calf serum and a 6 hormone preparation including 10 mU/ml bTSH as described by Ambesi-Impiombato et al., Proc. Natl. Acad. Sci. U.S.A., 77:3455 (1980), the disclosure of which is incorporated herein. For all assays herein described, the cells were plated in 24 well plates and grown for 3 days at 37° C. then maintained for 5-7 days in medium supplemented with 10 ug insulin alone prior to assay.
The bioassay was a modification of those previously described by Bidey et al, J. Endocrinol., 101:269 (1984); and Kasagi et al., ACTA Endocrinol., 115:30 (1987). To duplicate culture wells were added varying concentrations of test materials (see below) in a final volume of 300 ul of NaCl free HBSS with 0.5 mM iso-butyl-methyl-xanthine (IBMX, Sigma, St. Louis). In stimulation assays, only synthetic α-subunit peptides were added to the incubation medium. For inhibition assays, the noted concentrations of synthetic α-subunit peptides were added immediately prior to the addition of 200 mU/L bTSH. The plates were incubated at 37° C. in 5% CO2 for 2 hrs then 100 ul of incubation medium was removed and diluted in 900 ul of 0.05M sodium acetate pH 6.2 and assayed for cAMP content by RIA in accordance with procedures described by Wray and Glinos, Am. J. Physiol., 234 (Cell Phisol. 3):C131(1978)); and Steiner et al., J. Biol. Chem., 247:1106 (1972). […] Basal cAMP levels were determined in the presence of HBSS and IBMX alone. In inhibition assays percent inhibition was calculated as follows: [formula]
FIG. 4 reports data obtained for TSH deprived FRTL-5 cells incubated with a fixed amount of bTSH (200 mU/l) by itself or with various concentrations of synthetic peptides. cAMP content of medium was measured after 2 hrs. incubation at 37° C. Percent inhibition of cAMP generation was calculated as noted above.

Assay [2] deals with cAMP production (adenylate cyclase activity) in FRTL-5 cells. The experiment in a line: TSH bioassay, cAMP stimulation in FRTL-5 cells. The assay is classed as cell-based, rat. Particulars: at least 2 separate assays. The method, then:
as §1
The bioassay was a modification of those previously described by Bidey et al, J. Endocrinol., 101:269 (1984); and Kasagi et al., ACTA Endocrinol., 115:30 (1987). To duplicate culture wells were added varying concentrations of test materials (see below) in a final volume of 300 ul of NaCl free HBSS with 0.5 mM iso-butyl-methyl-xanthine (IBMX, Sigma, St. Louis). In stimulation assays, only synthetic α-subunit peptides were added to the incubation medium. […] Basal cAMP levels were determined in the presence of HBSS and IBMX alone. In inhibition assays percent inhibition was calculated as follows: [formula]
The standard curve for TSH is shown in FIG. 3 and reports TSH deprived FRTL-5 cells incubated for 2 hrs. in buffer (NaCl-free HBSS, 200 mM sucrose, 0.5% BSA, 0.5 mM IBMX) with increasing concentrations of bTSH. cAMP released into the incubation media was measured by RIA. […]

Where “and” joins values, the source holds several entries; their conditions need not be identical. Identical values can stand only once. Residues, ends and D or L forms follow the SMILES beside them.

On to `CSCC[C@H](NC(=O)[C@H](CS)NC(=O)[C@H](CCC(N)=O)NC(=O)[C@@H](N)CC(C)C)C(=O)NCC(=O)N[C@@H](CS)C(=O)N[C@@H](CS)C(=O)N[C@@H](Cc1ccccc1)C(=O)N[C@@H](CO)C(=O)N[C@@H](CCCNC(=N)N)C(=O)N[C@@H](C)C(=O)N[C@@H](Cc1ccc(O)cc1)C(=O)N1CCC[C@H]1C(=O)N[C@H](C(=O)N1CCC[C@H]1C(=O)N[C@@H](CC(C)C)C(=O)N[C@@H](CCCNC(=N)N)C(=O)N[C@@H](CO)C(=O)N[C@@H](CCCCN)C(=O)N[C@@H](CCCCN)C(=O)N[C@H](C(N)=O)[C@@H](C)O)[C@@H](C)O` [α26-46, Leu--Gln--Cys--Met--Gly--Cys--Cys--Phe--Ser--Arg--Ala--Tyr--Pro--Thr--Pro--Leu--Arg--Ser--Lys--Lys--Thr--(NH2)] (H-LQCMGCCFSRAYPTPLRSKKT-NH2), for which the “percent inhibition of TSH mediated cAMP generation” value in assay [1] (peptide 33.3 ug/ml) is 65.0±2.6% and 64.97%; in assay [1] (peptide 66.7 ug/ml), 95.6±3.1% and 95.62%; in assay [1] (peptide 133.3 ug/ml) it was 106±0.8% and 106.70%. For the same molecule, the “stimulation of cAMP levels over basal by peptide alone, in words” value in assay [2] was “no ability to stimulate cAMP production”.

The values above are taken from US4973578A, “Synthetic peptides derived from the alpha-subunit of human lycoprotein hormones” (Mayo Foundation for Medical Education and Research, priority 1988, dated 1990).
